In ChEMBL document CHEMBL2390939, “Synthesis and in vitro cytotoxicity of andrographolide-19-oic acid analogues as anti-cancer agents” (Bioorg Med Chem Lett, 2013):

What was measured:
[1] = test system: HCT-116; assay: Cytotoxicity against human HCT116 cells assessed as growth inhibition after 72 hrs by MTS assay; format: functional, cell-based; conditions: HCT-116, 72 h
[2] = test system: MCF7; assay: Cytotoxicity against human MCF7 cells assessed as growth inhibition after 72 hrs by MTS assay; format: functional, cell-based; conditions: MCF7, 72 h
[3] = test system: HCT-116; assay: Ratio of cis-platin IC50 to compound IC50 for growth inhibition of human HCT116 cells; format: functional

| Compound | IC50 [1] [µM] | IC50 [2] [µM] | Ratio IC50 [3] |
| --- | --- | --- | --- |
| C=C1CC[C@H]2[C@@](C)(CC[C@@H](OC(C)=O)[C@@]2(C)C(=O)O)[C@@H]1C/C=C1/C(=O)OC[C@H]1OC(=O)/C=C/c1ccc(OC)cc1 | 9.73 | 33.9 |  |
| C=C1CC[C@H]2[C@@](C)(CC[C@@H](O)[C@@]2(C)C(=O)O)[C@@H]1C/C=C1/C(=O)OC[C@H]1OC(=O)c1ccccc1 | 13.8 | > 40.2 |  |
| C=C1CC[C@H]2[C@@](C)(CC[C@@H](O)[C@@]2(C)C(=O)O)[C@@H]1C/C=C1/C(=O)OC[C@H]1OC(=O)/C=C/c1ccc(OC)cc1 | 1.92 | 8.86 |  |
| C=C1CC[C@H]2[C@@](C)(CC[C@@H](OC(C)=O)[C@@]2(C)C(=O)O)[C@@H]1C/C=C1/C(=O)OC[C@H]1OC(C)=O | 2.19 | > 4.1 |  |
| C=C1CC[C@H]2[C@@](C)(CC[C@@H](OC(C)=O)[C@@]2(C)C(=O)OC)[C@@H]1C/C=C1/C(=O)OC[C@H]1OC(=O)/C=C/c1ccc(OC)cc1 | 2.78 | 14.5 |  |
| C=C1CC[C@H]2[C@@](C)(CC[C@@H](OC(C)=O)[C@@]2(C)C(=O)OCc2ccccc2)[C@@H]1C/C=C1/C(=O)OC[C@H]1OC(=O)/C=C/c1ccc(OC)cc1 | 2.83 | 6.13 |  |
| C=C1CC[C@H]2[C@@](C)(CC[C@@H](OC(C)=O)[C@@]2(C)C(=O)O)[C@@H]1C/C=C1/C(=O)OC[C@H]1OC(=O)c1ccccc1 | 17.8 | 38.2 |  |
| C=C1CC[C@H]2[C@@](C)(CC[C@@H](O)[C@@]2(C)C(=O)O)[C@@H]1C/C=C1/C(=O)OC[C@H]1OC(C)=O | 25.2 | 33.3 |  |
| C=C1CC[C@H]2[C@@](C)(CC[C@@H](OC(C)=O)[C@@]2(C)C(=O)OC)[C@@H]1C/C=C1/C(=O)OC[C@H]1OC(C)=O | 2.02 | 6.4 |  |
| C=C1CC[C@H]2[C@@](C)(CC[C@@H](OC(C)=O)[C@@]2(C)C(=O)OC)[C@@H]1C/C=C1/C(=O)OC[C@H]1OC(=O)c1ccccc1 | 3.01 | 10.6 |  |
| C=C1CC[C@@H]2[C@](C)(CO)[C@H](O)CC[C@@]2(C)[C@@H]1C/C=C1/C(=O)OC[C@H]1O [ANDROGRAPHOLIDE] | 23.9 | > 66 |  |
| C=C1CC[C@H]2[C@@](C)(CC[C@@H](OC(C)=O)[C@@]2(C)C(=O)OCc2ccccc2)[C@@H]1C/C=C1/C(=O)OC[C@H]1OC(=O)c1ccccc1 | 1.18 | 8.37 | 11 |
| C=C1CC[C@H]2[C@@](C)(CC[C@@H](OC(C)=O)[C@@]2(C)C(=O)OCc2ccccc2)[C@@H]1C/C=C1/C(=O)OC[C@H]1OC(C)=O | 1.07 | 6.28 |  |
